Data: patent EP0603240B1, “SAFENING HERBICIDAL PYRAZOLYLSULFONYLUREAS” (priority 1991, dated 1993)

Assays:
Format in all cases: in vivo
[1] = system: barnyardgrass (Echinochloa crusgalli); test: Example 6, Procedure II: Herbicide No. 1 + alachlor (No. 7) with antidotes
Procedure, shortened: (§1)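 Herbicide No. 1 plus alachlor, with or without antidote, was applied in acetone and mixed into a silt loam soil layer covering corn and weed seedbeds. Containers received 0.6 cm overhead irrigation, then greenhouse sub-irrigation. Injury was rated as percent, averaged over duplicates; antidote effect is the injury difference without and with antidote.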

[2] = system: velvetleaf (Abutilon theophrasti); test: as above
Procedure, shortened: as §1

corn [3] = test: Example 9, Procedure II: Herbicide No. 1 + pretilachlor (No. 13) with antidotes
Procedure, shortened: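 Corn seeded in silt loam; seed bed covered with soil into which herbicide and antidote (in acetone) were mixed, alongside untreated and herbicide-only controls. Initial overhead irrigation equal to 0.6 cm rainfall, then greenhouse sub-irrigation. Response scored as percent injury; safening as injury difference without vs with antidote.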

[4] = system: barnyardgrass (Echinochloa crusgalli); test: Example 18, Procedure II: Herbicide No. 1 + ERADICANE (EPTC + R-25788) with auxiliary antidotes
Procedure: (§2) Containers were filled and compacted with a fumigated silt loam top soil to a depth of about 1.3 cm from the top of the container. A first container was designated as an untreated control, a second container was designated as a herbicide control, and a third container was designated as a herbicide + antidote test container. Each of the containers was seeded with a crop species. A measured amount of herbicide dispersed or dissolved in acetone was applied to a measured quantity of soil. To this same quantity of soil treated with herbicide, there was added a measured amount of antidote dispersed or dissolved in acetone. The quantity of soil treated with the herbicide and antidote was thoroughly mixed to incorporate the herbicide and antidote in the soil uniformly. The seed bed in the third container of soil was covered with the soil treated with the herbicide and antidote and the container was leveled. For each test series, the seed beds of the first and second containers were likewise covered by soil layers. the cover layer of the first container was not treated with herbicide or antidote.
(§3) The containers were then placed on a bench in a greenhouse and sub-irrigated as required for the duration of the test. […] Plant response is measured in terms of percent injury. Antidote efficacy is indicated as the difference in plant injury by the herbicide(s) without the antidote and with the antidote.
(§4) This procedure is the same as Procedure I, but modified in the manner that after incorporation of the chemicals (herbicide and antidote) the containers with the covered seedbed were treated with an initial overhead irrigation equivalent to 0.6 cm rainfall, then subsequently sub-irrigated as required on greenhouse benches.
(§5) In the series of greenhouse tests described below, for routine screening purposes the herbicide/antidote compositions were tested in crop/weed combinations involving corn as the crop and either or both of the weeds barnyardgrass (Echinochloa crusgalli), a monocotyledonous weed, and velvetleaf (Abutilon theophrasti), a dicotyledonous weed. In the tables below, these weeds are indicated by the symbols "BYG" and "VL", respectively.
(§6) In the test reported in this example, the herbicidal composition was similar to that used in Example 16 in that Herbicide No. 1 was combined with EPTC (Herbicide No. 4) as a co-herbicide and the antidotes included Nos. 1, 2, 7, 13 and 15. However, in this test the EPTC was introduced as a formulation of ERADICANE (EPTC + the antidote R-25788, i.e., Antidote No. 1) at an application rate of 8.96 kg/ha. Thus, in this test two antidotes were present, viz. R-25788 and one of the auxilliary antidotes, No. 2, 13 and 15.
(§7) Test procedures were those of Procedure II above.

[5] = system: velvetleaf (Abutilon theophrasti); test: as above
Procedure: as §2, §3, §4, §5, §6, §7

corn [6] = test: Example 19, Procedure II: Herbicide No. 1 + ERADICANE EXTRA with added antidotes
Procedure, shortened: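 Corn seeded in silt loam, covered with soil incorporating herbicide plus antidote (from acetone); EPTC given as ERADICANE EXTRA (with R-29148 and dietholate). Initial overhead irrigation equal to 0.6 cm rain, then greenhouse sub-irrigation. Percent injury scored; efficacy is injury without antidote minus injury with it.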

corn [7] = test: Example 21, Procedure II: Herbicide No. 1 + SUTAN PLUS (butylate + antidote) with antidotes
Procedure: as §2, §3, §4
(§8) In this example, tests were conducted as in the preceding Examples 18-20, except here the co-herbicidal component was SUTAN® PLUS, a commercial product comprising as the active herbicidal ingredient the compound butylate (Herbicide No. 10) and an antidote […] (Antidote No. 1). Again, the antidotal compounds herein were Nos. 1, 2, 7, 13 and 15. Procedure II was used.

[8] = system: barnyardgrass (Echinochloa crusgalli); test: as above
Procedure: as §2, §3, §4, §5, §8

[9] = system: velvetleaf (Abutilon theophrasti); test: as above
Procedure: as §2, §3, §4, §5, §8

corn [10] = test: Example 22: retest of Example 21 at reduced greenhouse temperatures; conditions: Table 22
Procedure: as §2, §3, §4, §8
The experiments in this example were designed as a retest of those described in Example 21 in view of the uncharacteristically poor corn safety and weed control, believed to have resulted from unseasonably high temperatures in the greenhouse. Accordingly, temperatures were reduced for these tests.

[11] = Herbicide No.1 0.14 + No.7 4.48 kg/ha + antidote 2.24 kg/ha
[12] = Herbicide No.1 0.14 + No.7 4.48 kg/ha + antidote 8.96 kg/ha
[13] = Herbicide No.1 0.56 + No.7 4.48 kg/ha + antidote 2.24 kg/ha
[14] = Herbicide No.1 0.56 + No.7 4.48 kg/ha + antidote 8.96 kg/ha
[15] = Herbicide No.1 0.56 kg/ha + ERADICANE 8.96 kg/ha, antidote 2.24 kg/ha
[16] = Herbicide No.1 0.56 kg/ha + ERADICANE 8.96 kg/ha, antidote 8.96 kg/ha
[17] = Herbicide No.1 1.12 kg/ha + ERADICANE 8.96 kg/ha, antidote 2.24 kg/ha
[18] = Herbicide No.1 1.12 kg/ha + ERADICANE 8.96 kg/ha, antidote 8.96 kg/ha
[19] = Herbicide No.1 0.56 kg/ha + SUTAN + 8.96 kg/ha, antidote 2.24 kg/ha
[20] = Herbicide No.1 0.56 kg/ha + SUTAN + 8.96 kg/ha, antidote 8.96 kg/ha
[21] = Herbicide No.1 1.12 kg/ha + SUTAN + 8.96 kg/ha, antidote 2.24 kg/ha
[22] = Herbicide No.1 1.12 kg/ha + SUTAN + 8.96 kg/ha, antidote 8.96 kg/ha

With C=CCN(CC=C)C(=O)C(Cl)Cl [compound 1] the “% Injury BYG” value [1, 11] was 100%, the “% Injury BYG” value [1, 12] was 100% and the “% Injury BYG” value [1, 13] was 100%. The “% Injury BYG” value [1, 14] was 100%, the “% Injury VL” value [2, 11] was 75% and the “% Injury VL” value [2, 12] was 80%. The “% Injury VL” value [2, 13] was 80%, the “% Injury VL” value [2, 14] was 85% and the “% Injury Corn” value (corn [3]; Herbicide No.1 0.14 kg/ha + Herbicide No.13 2.24 kg/ha, antidote rate 2.24 kg/ha) was 0%. For the same compound, the “% Injury Corn” value (corn [3]; Herbicide No.1 0.14 kg/ha + Herbicide No.13 2.24 kg/ha, antidote rate 8.96 kg/ha) was 0%, the “% Injury Corn” value (corn [3]; Herbicide No.1 0.56 kg/ha + Herbicide No.13 2.24 kg/ha, antidote rate 2.24 kg/ha) was 5% and the “% Injury Corn” value (corn [3]; Herbicide No.1 0.56 kg/ha + Herbicide No.13 2.24 kg/ha, antidote rate 8.96 kg/ha) was 10%. For the same compound, the “% Injury BYG” value [4, 15] was 90%, the “% Injury BYG” value [4, 16] was 90% and the “% Injury BYG” value [4, 17] was 90%. The “% Injury BYG” value [4, 18] was 85%, the “% Injury VL” value [5, 15] was 85% and the “% Injury VL” value [5, 16] was 85%. For the same compound, the “% Injury VL” value [5, 17] was 75%, the “% Injury VL” value [5, 18] was 75% and the “% Injury Corn” value (corn [6]; Herbicide No.1 0.56 kg/ha + ERADICANE EXTRA 8.96 kg/ha, antidote 2.24 kg/ha) was 35%. For the same compound, the “% Injury Corn” value (corn [6]; Herbicide No.1 0.56 kg/ha + ERADICANE EXTRA 8.96 kg/ha, antidote 8.96 kg/ha) was 15%, the “% Injury Corn” value (corn [6]; Herbicide No.1 1.12 kg/ha + ERADICANE EXTRA 8.96 kg/ha, antidote 2.24 kg/ha) was 35% and the “% Injury Corn” value (corn [6]; Herbicide No.1 1.12 kg/ha + ERADICANE EXTRA 8.96 kg/ha, antidote 8.96 kg/ha) was 25%. The “% Injury Corn” value (corn [7]; [19]) was 15%, the “% Injury Corn” value (corn [7]; [20]) was 15% and the “% Injury Corn” value (corn [7]; [21]) was 30%. The “% Injury Corn” value (corn [7]; [22]) was 20%, the “% Injury BYG” value [8, 19] was 0% and the “% Injury BYG” value [8, 20] was 25%. For the same compound, the “% Injury BYG” value [8, 21] was 10%, the “% Injury BYG” value [8, 22] was 35% and the “% Injury VL” value [9, 19] was 40%. For the same compound, the “% Injury VL” value [9, 20] was 65%, the “% Injury VL” value [9, 21] was 65% and the “% Injury VL” value [9, 22] was 60%. The “% Injury Corn” value (corn [10]; Herbicide No.1 0.56 Kg/ha + SUTAN + 8.96 Kg/ha + antidote 2.24 Kg/ha) was 45%, the “% Injury Corn” value (corn [10]; Herbicide No.1 0.56 Kg/ha + SUTAN + 8.96 Kg/ha + antidote 8.96 Kg/ha) was 60% and the “% Injury Corn” value (corn [10]; Herbicide No.1 1.12 Kg/ha + SUTAN + 8.96 Kg/ha + antidote 2.24 Kg/ha) was 50%. The “% Injury Corn” value (corn [10]; Herbicide No.1 1.12 Kg/ha + SUTAN + 8.96 Kg/ha + antidote 8.96 Kg/ha) was 55%.
